Assay [1] deals with T1, M1 muscarinic receptor (Homo sapiens, UniProt P11229).
T1 construct: expressed in transfected cells; host or cells: CHO (M1-CHO)
T1 sequence (P11229 1-460): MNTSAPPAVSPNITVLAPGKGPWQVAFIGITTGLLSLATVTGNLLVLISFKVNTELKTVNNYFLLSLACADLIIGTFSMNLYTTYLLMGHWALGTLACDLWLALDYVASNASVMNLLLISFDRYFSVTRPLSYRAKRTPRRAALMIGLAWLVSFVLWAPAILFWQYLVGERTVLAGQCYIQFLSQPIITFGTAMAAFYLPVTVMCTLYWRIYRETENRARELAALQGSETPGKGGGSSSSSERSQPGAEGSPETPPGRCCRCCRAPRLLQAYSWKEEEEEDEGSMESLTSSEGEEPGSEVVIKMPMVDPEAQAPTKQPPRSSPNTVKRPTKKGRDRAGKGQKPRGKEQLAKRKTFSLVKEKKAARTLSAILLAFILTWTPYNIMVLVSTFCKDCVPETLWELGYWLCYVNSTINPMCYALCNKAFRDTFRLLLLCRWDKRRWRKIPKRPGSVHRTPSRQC
Description: Functional mobilization of intracellular calcium (FLIPR) in M1-CHO cells. The conditions noted are these: M1 receptor, calcium mobilization; for Emax: read-out: M1 Efficacy. It counts as cell-based. In short, it runs like this:
(§1)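 Intracellular calcium rise is measured by FLIPR fluorescence over 60 sec in CHO cells carrying human M1 or M4 receptors. Compounds are tested alone as agonists, or pre-incubated 15 min (or co-applied) ahead of carbachol at its EC80 to detect inhibition.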

Assay [2] addresses T2, M4 muscarinic receptor (Homo sapiens, UniProt P08173).
T2 construct: expressed in transfected cells; host or cells: CHO (M4-CHO)
T2 sequence (P08173 1-479): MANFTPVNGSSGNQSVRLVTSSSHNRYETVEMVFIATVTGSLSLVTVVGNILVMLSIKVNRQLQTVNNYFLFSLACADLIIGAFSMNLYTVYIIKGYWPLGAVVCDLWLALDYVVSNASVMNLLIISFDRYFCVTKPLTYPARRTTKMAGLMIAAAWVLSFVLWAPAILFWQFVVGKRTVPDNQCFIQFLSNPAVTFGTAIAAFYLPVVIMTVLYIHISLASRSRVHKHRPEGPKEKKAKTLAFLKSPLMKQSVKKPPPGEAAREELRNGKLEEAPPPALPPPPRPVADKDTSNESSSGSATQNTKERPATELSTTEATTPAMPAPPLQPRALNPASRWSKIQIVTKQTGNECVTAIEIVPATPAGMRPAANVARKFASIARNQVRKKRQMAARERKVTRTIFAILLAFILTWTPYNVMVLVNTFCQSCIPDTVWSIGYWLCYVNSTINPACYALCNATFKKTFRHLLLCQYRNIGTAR
Briefly: Functional mobilization of intracellular calcium (FLIPR) in M4-CHO cells. Format: cell-based. As to conditions: M4 receptor, calcium mobilization; for Emax: read-out: M4 Efficacy. The essentials: as §1
For orientation: A change in cytosolic calcium serves as a functional read-out for many receptors and channels.

The structures appear in SMILES notation.

In the case of `CCOC(=O)N1CCC(CN2CCC3(CC2)CN(C(C)=O)c2c(F)cccc23)CC1` [compound 307], in assay [1], the “M1 Activity” value was “xx (activity was measured to be between 0.1 μM and 1.0 μM)”; the Emax was in the range of 65 to 85%. In assay [2], the “M4 Activity” value is listed as “x (activity was measured to be greater than 1.0 μM)” and the Emax is less than 65%.

Regarding `CCOC(=O)N1C2CCC1CC(N1CCC3(CC1)CN(C(=O)c1ccncc1)c1ccc(F)cc13)C2` (stereo not drawn) [compound 308], in assay [1], the “M1 Activity” value is given as “xxx (activity was measured to be less than 0.1 μM)” and the Emax is greater than 85%. In assay [2], the “M4 Activity” value is “x (activity was measured to be greater than 1.0 μM)” and the Emax is less than 65%.

With `CCOC(=O)N1CCCC(N2CCC3(CC2)CN(C(C)=O)c2ccc(F)cc23)CC1` (stereo not drawn) [compound 309], in assay [1], the “M1 Activity” value is “xx (activity was measured to be between 0.1 μM and 1.0 μM)”; the Emax was greater than 85%. In addition, in assay [2], the “M4 Activity” value was “x (activity was measured to be greater than 1.0 μM)” and the Emax was less than 65%.

As for `CCOC(=O)N1C2CCC1CC(N1CCC3(CC1)CNc1ccc(F)cc13)C2` (stereo not drawn) [compound 310], in assay [1], the “M1 Activity” value was “xx (activity was measured to be between 0.1 μM and 1.0 μM)”; the Emax is less than 65%. Besides, in assay [2], the “M4 Activity” value is listed as “x (activity was measured to be greater than 1.0 μM)” and the Emax was less than 65%.

With `COCCOC(=O)N1C2CCC1CC(N1CCC3(CC1)CN(C(=O)C1CC1)c1ccc(F)cc13)C2` (stereo not drawn) [compound 311], in assay [1], the “M1 Activity” value is given as “xxx (activity was measured to be less than 0.1 μM)” and the Emax was 65 to 85%. Moreover, in assay [2], the “M4 Activity” value is on record as “x (activity was measured to be greater than 1.0 μM)” and the Emax lay within 65 to 85%.

For `COC(=O)N1CCC(N2CCC3(CC2)CN(C(C)=O)c2ccc(C)cc23)CC1` [compound 312], in assay [1], the “M1 Activity” value was “x (activity was measured to be greater than 1.0 μM)” and the Emax was less than 65%. Also, in assay [2], the “M4 Activity” value is recorded as “x (activity was measured to be greater than 1.0 μM)” and the Emax was less than 65%.

For the compound `C1=C[C@H]2C[C@H]1C[C@H]2CN1CCC2(CCc3ccccc32)CC1` [compound 313], in assay [1], the “M1 Activity” value was “x (activity was measured to be greater than 1.0 μM)” and the Emax is less than 65%. Further, in assay [2], the “M4 Activity” value is reported as “x (activity was measured to be greater than 1.0 μM)” and the Emax is less than 65%.

As to `COC(=O)N1C2CCC1CC(N1CCC3(CC1)CN(C(=O)N(C)C)c1ccc(F)cc13)C2` (stereo not drawn) [compound 314], in assay [1], the “M1 Activity” value was “xx (activity was measured to be between 0.1 μM and 1.0 μM)”; the Emax was less than 65%. In assay [2], the “M4 Activity” value is “x (activity was measured to be greater than 1.0 μM)” and the Emax is less than 65%.

Consider `CCOC(=O)N1CCC(C)(CN2CCC3(CC2)C[C@H](NC(C)=O)c2ccccc23)CC1` [compound 315], for which, in assay [1], the “M1 Activity” value is listed as “x (activity was measured to be greater than 1.0 μM)” and the Emax is less than 65%. In assay [2], the “M4 Activity” value is given as “x (activity was measured to be greater than 1.0 μM)” and the Emax is less than 65%.

Regarding `C#CCOC(=O)N1CCC(CN2CCC3(CC2)CN(C(C)=O)c2ccc(F)cc23)CC1` [compound 316], in assay [1], the “M1 Activity” value is listed as “x (activity was measured to be greater than 1.0 μM)” and the Emax is less than 65%. Also, in assay [2], the “M4 Activity” value is “x (activity was measured to be greater than 1.0 μM)” and the Emax is less than 65%.

With `CCOC(=O)N1CCC(N2CCC3(CC2)CN(C(=O)CC)c2ccc(F)cc23)CC1` [compound 317], in assay [1], the “M1 Activity” value is listed as “x (activity was measured to be greater than 1.0 μM)” and the Emax is less than 65%. In addition, in assay [2], the “M4 Activity” value is given as “x (activity was measured to be greater than 1.0 μM)” and the Emax was less than 65%.

As to `CCOC(=O)N1C2CCC1CC(N1CCC3(CC1)CC(NC(C)=O)c1ccccc13)C2` (stereo not drawn) [compound 318], in assay [1], the “M1 Activity” value is recorded as “xxx (activity was measured to be less than 0.1 μM)” and the Emax was 65 to 85%. In assay [2], the “M4 Activity” value is recorded as “xxx (activity was measured to be less than 0.1 μM)” and the Emax was greater than 85%.

Consider `CCOC(=O)N1CCC(CN2CCC3(CC2)C(=O)Nc2ccccc23)CC1` [compound 319], for which, in assay [1], the “M1 Activity” value was “xx (activity was measured to be between 0.1 μM and 1.0 μM)”; the Emax was less than 65%. For the same compound, in assay [2], the “M4 Activity” value is listed as “x (activity was measured to be greater than 1.0 μM)” and the Emax is less than 65%.

With `CC(C)OC(=O)N1C2CCC1CC(N1CCC3(CC1)COc1ccc(F)cc13)C2` (stereo not drawn) [compound 320], in assay [1], the “M1 Activity” value was “xx (activity was measured to be between 0.1 μM and 1.0 μM)”; the Emax was in the range of 65 to 85%. In assay [2], the “M4 Activity” value is on record as “x (activity was measured to be greater than 1.0 μM)” and the Emax is less than 65%.

With `CCOC(=O)N1CCC(N2CCC3(CC2)CN(C(=O)c2ccno2)c2ccc(F)cc23)CC1` [compound 321], in assay [1], the “M1 Activity” value is “xx (activity was measured to be between 0.1 μM and 1.0 μM)”; the Emax fell in the range of 65 to 85%. Further, in assay [2], the “M4 Activity” value was “x (activity was measured to be greater than 1.0 μM)” and the Emax was in the range of 65 to 85%.

As to `CCOC(=O)N1C2CCC1CC(N1CCC3(CC1)CN(C(C)=O)c1c(F)cccc13)C2` (stereo not drawn) [compound 322], in assay [1], the “M1 Activity” value was “xx (activity was measured to be between 0.1 μM and 1.0 μM)”; the Emax was less than 65%. In assay [2], the “M4 Activity” value is “xxx (activity was measured to be less than 0.1 μM)” and the Emax is greater than 85%.

Consider `CC(=O)N[C@@H]1CC2(CCN([C@@H]3C[C@H]4CC[C@@H]3C4)CC2)c2ccccc21` [compound 323], for which, in assay [1], the “M1 Activity” value is “xx (activity was measured to be between 0.1 μM and 1.0 μM)”; the Emax lay within 65 to 85%. Further, in assay [2], the “M4 Activity” value is “x (activity was measured to be greater than 1.0 μM)” and the Emax lay within 65 to 85%.

Regarding `CCCC(=O)N1CC2(CCN(C3CCN(C(=O)OCC)CC3)CC2)c2cc(F)ccc21` [compound 324], in assay [1], the “M1 Activity” value was “xx (activity was measured to be between 0.1 μM and 1.0 μM)”; the Emax lay in the range of 65 to 85%. For the same compound, in assay [2], the “M4 Activity” value was “x (activity was measured to be greater than 1.0 μM)” and the Emax was in the range of 65 to 85%.

Consider `Fc1ccc2c(c1)C1(CCN(C3CCCCC3)CC1)CN2` [compound 325], for which, in assay [1], the “M1 Activity” value is listed as “x (activity was measured to be greater than 1.0 μM)” and the Emax is 65 to 85%. For the same compound, in assay [2], the “M4 Activity” value is “x (activity was measured to be greater than 1.0 μM)” and the Emax is less than 65%.

For the compound `CCOC(=O)N[C@H]1CC2(CCN(C[C@H]3C[C@H]4CC[C@H]3C4)CC2)c2ccccc21` [compound 326], in assay [1], the “M1 Activity” value is “x (activity was measured to be greater than 1.0 μM)” and the Emax is less than 65%. In assay [2], the “M4 Activity” value is listed as “x (activity was measured to be greater than 1.0 μM)” and the Emax was less than 65%.

As for `CCOC(=O)N1CCC(CN2CCC3(CC2)C(=O)N(C)c2ccccc23)CC1` [compound 327], in assay [1], the “M1 Activity” value is recorded as “x (activity was measured to be greater than 1.0 μM)” and the Emax is less than 65%. For the same compound, in assay [2], the “M4 Activity” value is recorded as “x (activity was measured to be greater than 1.0 μM)” and the Emax was less than 65%.

As for `CCCC1CCC(N2CCC3(CC2)CNc2ccc(F)cc23)CC1` (stereo not drawn) [compound 328], in assay [1], the “M1 Activity” value is “xx (activity was measured to be between 0.1 μM and 1.0 μM)”; the Emax was less than 65%. Besides, in assay [2], the “M4 Activity” value is given as “x (activity was measured to be greater than 1.0 μM)” and the Emax was in the range of 65 to 85%.

For `CCCOC(=O)N1C2CCC1CC(N1CCC3(CC1)CN(C(=O)OC1CCC1)c1ccc(F)cc13)C2` (stereo not drawn) [compound 329], in assay [1], the “M1 Activity” value is “xxx (activity was measured to be less than 0.1 μM)” and the Emax lay within 65 to 85%. Also, in assay [2], the “M4 Activity” value was “x (activity was measured to be greater than 1.0 μM)” and the Emax was less than 65%.

Take `CCOC(=O)N1CCC(N2CCC3(CC2)CN(C(=O)c2ccc(C)cc2)c2ccc(F)cc23)CC1` [compound 330]: in assay [1], the “M1 Activity” value is “x (activity was measured to be greater than 1.0 μM)” and the Emax is less than 65%. In addition, in assay [2], the “M4 Activity” value is recorded as “x (activity was measured to be greater than 1.0 μM)” and the Emax is less than 65%.

Source of the values: US7786141B2 (Vertex Pharmaceuticals Incorporated, priority 2004, dated 2010).
